According to patent US20100291010A1, “NOVEL ESTERS AND COMPOSITIONS AND USES THEREOF” (INNOSPEC LIMITED, priority 2007, published 2010):

Description: These two sunscreens are difficult to dissolve and keep in solution for use in sunscreen formulations for optimal SPF (Sun-Protection Factors). Higher solvency for a sunscreen ingredient is described as it allows higher concentrations of the sunscreen active ingredient in a formulation. […] The liquid organic sunscreens that are commonly used as octylsalicylate (OS) and octyl-methoxycinnamate (OMC).

Q: Which results are given for `COc1ccc(C(=O)c2ccccc2)c(O)c1` [Benzophenone-3, 2 hydroxy-4-methoxybenzophenone]?
A: Solubility in Finester LP (%): 10%; Solubility in Finsolv TN (%): 15%
